In patent publication US9840522B2, “Multi-modal bioprobe for bladder cancer imaging and photodynamic therapy” (Hong Kong Baptist University, priority 2014, dated 2017):

System: xenograft tumor (T24 bladder cancer cells)
Experiment: In vivo magnetic resonance imaging after tail vein injection
Set-up: species or system mice
Details: MRI immediately
Method: After tail vein injection of Gd-3-R1 and Gd-DOTA into the mice, MRI experiment is conducted immediately.

## O=C([O-])CN1CCN(CC(=O)[O-])CCN(CC(=O)O)CCN(CC(=O)[O-])CC1.[Gd+3] [Gd-DOTA]
  MRI contrast effect on xenograft tumor: enhances the whole body signal without selectivity toward the tumor
